# Measured values: ChEMBL document CHEMBL3585245, “Synthesis and antiproliferative evaluation of 9-methoxy-6-(piperazin-1-yl)-11H-indeno[1,2-c]quinoline-11-one derivatives. Part 4” (Medchemcomm, 2014)
# Test system: Detroit 551
# Experiment: Antiproliferative activity against human Detroit 551 cells incubated for 72 hrs by MTT assay
# Assay type: functional, cell-based
# Conditions: Detroit 551, 72 h
row,SMILES,IC50 [µM]
1,COc1ccc2c(c1)C(=O)c1c-2c(N2CCNCC2)nc2ccccc12,5.71
2,CNCCC(=O)N1CCN(c2nc3ccccc3c3c2-c2ccc(OC)cc2C3=O)CC1,2.92
3,COc1ccc2c(c1)C(=O)c1c-2c(N2CCN(C(=O)CN(C)C)CC2)nc2ccccc12,31.5
4,CNCC(=O)N1CCN(c2nc3ccccc3c3c2-c2ccc(OC)cc2C3=O)CC1,4.84
5,COc1ccc2c(c1)C(=O)c1c-2c(N2CCN(C(=O)CCN(C)C)CC2)nc2ccccc12,2.84
6,COc1ccc2c(c1)C(=O)c1c-2c(N2CCN(C(=O)CNCCCN(C)C)CC2)nc2ccccc12,8.89

# Test system: not listed separately
# Experiment: Antiproliferative activity against human 786-O cells incubated for 72 hrs by MTT assay
# Assay type: functional, cell-based
# Conditions: 786-0, 72 h
row,SMILES,IC50 [µM]
1,COc1ccc2c(c1)C(=O)c1c-2c(N2CCNCC2)nc2ccccc12,12.5
2,CNCCC(=O)N1CCN(c2nc3ccccc3c3c2-c2ccc(OC)cc2C3=O)CC1,6
3,COc1ccc2c(c1)C(=O)c1c-2c(N2CCN(C(=O)CN(C)C)CC2)nc2ccccc12,14.1
4,CNCC(=O)N1CCN(c2nc3ccccc3c3c2-c2ccc(OC)cc2C3=O)CC1,6.2
5,COc1ccc2c(c1)C(=O)c1c-2c(N2CCN(C(=O)CCN(C)C)CC2)nc2ccccc12,11.5
6,COc1ccc2c(c1)C(=O)c1c-2c(N2CCN(C(=O)CNCCCN(C)C)CC2)nc2ccccc12,9.97

# Test system: HeLa
# Experiment: Antiproliferative activity against human HeLa cells incubated for 72 hrs by MTT assay
# Assay type: functional, cell-based
# Conditions: not given
row,IC50 [µM],SMILES
1,15.2,COc1ccc2c(c1)C(=O)c1c-2c(N2CCNCC2)nc2ccccc12
2,1.9,CNCCC(=O)N1CCN(c2nc3ccccc3c3c2-c2ccc(OC)cc2C3=O)CC1
3,11.8,COc1ccc2c(c1)C(=O)c1c-2c(N2CCN(C(=O)CN(C)C)CC2)nc2ccccc12

# Continued, molecule first:
row,SMILES,IC50 [µM]
1,CNCC(=O)N1CCN(c2nc3ccccc3c3c2-c2ccc(OC)cc2C3=O)CC1,2.04
2,COc1ccc2c(c1)C(=O)c1c-2c(N2CCN(C(=O)CCN(C)C)CC2)nc2ccccc12,11.7
3,COc1ccc2c(c1)C(=O)c1c-2c(N2CCN(C(=O)CNCCCN(C)C)CC2)nc2ccccc12,10.8

# Test system: AGS
# Experiment: Antiproliferative activity against human AGS cells incubated for 72 hrs by MTT assay
# Assay type: functional, cell-based
# Conditions: not given
row,IC50 [µM],SMILES
1,10.1,COc1ccc2c(c1)C(=O)c1c-2c(N2CCNCC2)nc2ccccc12
2,8.11,CNCCC(=O)N1CCN(c2nc3ccccc3c3c2-c2ccc(OC)cc2C3=O)CC1
3,8.7,COc1ccc2c(c1)C(=O)c1c-2c(N2CCN(C(=O)CN(C)C)CC2)nc2ccccc12

# More lines, now with the values behind:
row,SMILES,IC50 [µM]
1,CNCC(=O)N1CCN(c2nc3ccccc3c3c2-c2ccc(OC)cc2C3=O)CC1,7.15
2,COc1ccc2c(c1)C(=O)c1c-2c(N2CCN(C(=O)CCN(C)C)CC2)nc2ccccc12,8.11
3,COc1ccc2c(c1)C(=O)c1c-2c(N2CCN(C(=O)CNCCCN(C)C)CC2)nc2ccccc12,5.62

# Test system: NCI-H1299
# Experiment: Antiproliferative activity against human H1299 cells incubated for 72 hrs by MTT assay
# Assay type: functional, cell-based
# Conditions: NCI-H1299, 72 h
row,IC50 [µM],SMILES
1,17.1,COc1ccc2c(c1)C(=O)c1c-2c(N2CCNCC2)nc2ccccc12
2,5.46,CNCCC(=O)N1CCN(c2nc3ccccc3c3c2-c2ccc(OC)cc2C3=O)CC1
3,6.28,COc1ccc2c(c1)C(=O)c1c-2c(N2CCN(C(=O)CN(C)C)CC2)nc2ccccc12

# The next lines start with the molecule.
row,SMILES,IC50 [µM]
1,CNCC(=O)N1CCN(c2nc3ccccc3c3c2-c2ccc(OC)cc2C3=O)CC1,5.14
2,COc1ccc2c(c1)C(=O)c1c-2c(N2CCN(C(=O)CCN(C)C)CC2)nc2ccccc12,5.79
3,COc1ccc2c(c1)C(=O)c1c-2c(N2CCN(C(=O)CNCCCN(C)C)CC2)nc2ccccc12,5.99

# Test system: not listed separately
# Experiment: Antiproliferative activity against human SKHep cells incubated for 72 hrs by MTT assay
# Assay type: functional, cell-based
# Conditions: not given
row,SMILES,IC50 [µM]
1,COc1ccc2c(c1)C(=O)c1c-2c(N2CCNCC2)nc2ccccc12,25.3
2,CNCCC(=O)N1CCN(c2nc3ccccc3c3c2-c2ccc(OC)cc2C3=O)CC1,9.1
3,COc1ccc2c(c1)C(=O)c1c-2c(N2CCN(C(=O)CN(C)C)CC2)nc2ccccc12,19.2
4,CNCC(=O)N1CCN(c2nc3ccccc3c3c2-c2ccc(OC)cc2C3=O)CC1,4.83
5,COc1ccc2c(c1)C(=O)c1c-2c(N2CCN(C(=O)CCN(C)C)CC2)nc2ccccc12,16.6
6,COc1ccc2c(c1)C(=O)c1c-2c(N2CCN(C(=O)CNCCCN(C)C)CC2)nc2ccccc12,13.1

# Test system: MDA-MB-231
# Experiment: Antiproliferative activity against human MDA-MB-231 cells incubated for 72 hrs by MTT assay
# Assay type: functional, cell-based
# Conditions: MDA-MB-231, 72 h
row,IC50 [µM],SMILES
1,23.8,COc1ccc2c(c1)C(=O)c1c-2c(N2CCNCC2)nc2ccccc12
2,5.89,CNCCC(=O)N1CCN(c2nc3ccccc3c3c2-c2ccc(OC)cc2C3=O)CC1
3,6.15,COc1ccc2c(c1)C(=O)c1c-2c(N2CCN(C(=O)CN(C)C)CC2)nc2ccccc12

# Continued, molecule first:
row,SMILES,IC50 [µM]
1,CNCC(=O)N1CCN(c2nc3ccccc3c3c2-c2ccc(OC)cc2C3=O)CC1,5.92
2,COc1ccc2c(c1)C(=O)c1c-2c(N2CCN(C(=O)CCN(C)C)CC2)nc2ccccc12,6.61
3,COc1ccc2c(c1)C(=O)c1c-2c(N2CCN(C(=O)CNCCCN(C)C)CC2)nc2ccccc12,6

# Test system: SAS
# Experiment: Antiproliferative activity against human SAS cells incubated for 72 hrs by MTT assay
# Assay type: functional, cell-based
# Conditions: not given
row,SMILES,IC50 [µM]
1,COc1ccc2c(c1)C(=O)c1c-2c(N2CCNCC2)nc2ccccc12,> 30
2,CNCCC(=O)N1CCN(c2nc3ccccc3c3c2-c2ccc(OC)cc2C3=O)CC1,6.9
3,COc1ccc2c(c1)C(=O)c1c-2c(N2CCN(C(=O)CN(C)C)CC2)nc2ccccc12,> 30
4,CNCC(=O)N1CCN(c2nc3ccccc3c3c2-c2ccc(OC)cc2C3=O)CC1,7.4
5,COc1ccc2c(c1)C(=O)c1c-2c(N2CCN(C(=O)CCN(C)C)CC2)nc2ccccc12,17
6,COc1ccc2c(c1)C(=O)c1c-2c(N2CCN(C(=O)CNCCCN(C)C)CC2)nc2ccccc12,> 30
